Assay results published in US10167262B2, “Herbicidal substituted 3-arylpyrazoles” (FMC CORPORATION, priority 2014, dated 2019).

Key:
Format in all cases: in vivo
[1] = tested on: sedge, umbrella (small-flower umbrella sedge, Cyperus difformis); assay: Test B flooded paddy test, plant response rating 0-100; conditions: Flood, 250 g ai/ha; scale 0 to 100 (0 no effect, 100 complete control); 13 to 15 days
In short: (§1)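 Ratings were visual and made relative to untreated controls after 13 to 15 greenhouse days.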

[2] = tested on: ducksalad (Heteranthera limosa); assay: as above; conditions: Flood, 250 g ai/ha; scale 0 to 100 (0 no effect, 100 complete control); 13 to 15 days
In short: as §1

rice (Oryza sativa) = assay: as above; conditions: Flood, 250 g ai/ha; scale 0 to 100 (0 no effect, 100 complete control); 13 to 15 days
In short: as §1

[3] = tested on: barnyardgrass (Echinochloa crus-galli); assay: as above; conditions: Flood, 250 g ai/ha; scale 0 to 100 (0 no effect, 100 complete control); 13 to 15 days
In short: as §1

[4] = tested on: winter barley (Hordeum vulgare); assay: Test C postemergence greenhouse test, plant response rating 0-100; conditions: for Plant response rating, Barley: scale 0 to 100
In short: (§2)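 Visual rating vs. controls, 0 (no effect) to 100 (complete control), 13–15 d after postemergence treatment. Potted plants, 1- to 4-leaf stage (2–18 cm), greenhouse-held.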

[5] = tested on: windgrass (Apera spica-venti); assay: as above; conditions: for Plant response rating, Windgrass: scale 0 to 100
In short: as §2

[6] = tested on: bermudagrass (Cynodon dactylon); assay: as above; conditions: for Plant response rating, Bermudagrass: scale 0 to 100
In short: as §2

[7] = tested on: downy bromegrass (Bromus tectorum); assay: as above; conditions: for Plant response rating, Bromegrass, Downy: scale 0 to 100
In short: as §2

[8] = tested on: surinam grass (Brachiaria decumbens); assay: as above; conditions: for Plant response rating, Surinam Grass: scale 0 to 100
In short: as §2

[9] = tested on: green foxtail (Setaria viridis); assay: as above; conditions: for Plant response rating, Foxtail, Green: scale 0 to 100
In short: as §2

Row | Structure (SMILES) | Plant response rating, Sedge, Umbrella [1] | Plant response rating, Ducksalad [2] | Plant response rating, Rice (rice (Oryza sativa)) | Plant response rating, Barnyardgrass [3] | Plant response rating (0 to 100), Barley ([4]; 62 g ai/ha) | Plant response rating (0 to 100), Barley ([4]; 125 g ai/ha) | Plant response rating, Barley ([4]; 250 g ai/ha) | Plant response rating (0 to 100), Windgrass ([5]; 62 g ai/ha) | Plant response rating (0 to 100), Windgrass ([5]; 125 g ai/ha) | Plant response rating, Windgrass ([5]; 250 g ai/ha) | Plant response rating (0 to 100), Bermudagrass ([6]; 62 g ai/ha) | Plant response rating (0 to 100), Bermudagrass ([6]; 125 g ai/ha) | Plant response rating, Bermudagrass ([6]; 250 g ai/ha) | Plant response rating (0 to 100), Bromegrass, Downy ([7]; 62 g ai/ha) | Plant response rating (0 to 100), Bromegrass, Downy ([7]; 125 g ai/ha) | Plant response rating, Bromegrass, Downy ([7]; 250 g ai/ha) | Plant response rating (0 to 100), Surinam Grass ([8]; 62 g ai/ha) | Plant response rating (0 to 100), Surinam Grass ([8]; 125 g ai/ha) | Plant response rating, Surinam Grass ([8]; 250 g ai/ha) | Plant response rating (0 to 100), Foxtail, Green ([9]; 62 g ai/ha) | further results
1 | Cn1cc(C(=O)c2ccccc2)c(-c2cc(Br)cc(Br)c2)n1 [Compound 53] | 40 | 0 | 0 | 0 | 0 | 0 | 0 | 0 | 0 | 0 | 5 | 5 | 5 | 0 | 0 | 0 | 0 | 0 | 0 | 0 | Plant response rating, Barley ([4]; 500 g ai/ha): 0; Plant response rating, Windgrass ([5]; 500 g ai/ha): 0; Plant response rating, Bermudagrass ([6]; 500 g ai/ha): 5; Plant response rating, Bromegrass, Downy ([7]; 500 g ai/ha): 0; Plant response rating, Surinam Grass ([8]; 500 g ai/ha): 0; Plant response rating (0 to 100), Foxtail, Green ([9]; 125 g ai/ha): 0; Plant response rating, Foxtail, Green ([9]; 250 g ai/ha): 0; Plant response rating, Foxtail, Green ([9]; 500 g ai/ha): 0
2 | Fc1ccccc1NN=C(c1ccccc1)c1c[nH]nc1-c1cc(Cl)cc(Cl)c1 [Compound 57] | 75 | 0 | 0 | 0 | 0 | 0 | 0 | 0 | 0 | 0 | 0 | 0 | 5 | 0 | 0 | 0 | 0 | 0 | 0 | 0 | Plant response rating (0 to 100), Barley ([4]; 31 g ai/ha): 0; Plant response rating (0 to 100), Bermudagrass ([6]; 31 g ai/ha): 0; Plant response rating (0 to 100), Bromegrass, Downy ([7]; 31 g ai/ha): 0; Plant response rating (0 to 100), Foxtail, Green ([9]; 31 g ai/ha): 0; Plant response rating (0 to 100), Foxtail, Green ([9]; 125 g ai/ha): 0; Plant response rating, Foxtail, Green ([9]; 250 g ai/ha): 0
3 | Clc1cc(Cl)cc(-c2n[nH]cc2C(=NNc2ccccc2Cl)c2ccccc2)c1 [Compound 66] | 70 | 0 | 0 | 0 | 0 | 0 | 0 | 0 | 0 | 0 | 0 | 0 | 0 | 0 | 0 | 0 | 0 | 0 | 0 | 0 | Plant response rating, Barley ([4]; 500 g ai/ha): 0; Plant response rating, Windgrass ([5]; 500 g ai/ha): 0; Plant response rating, Bermudagrass ([6]; 500 g ai/ha): 0; Plant response rating, Bromegrass, Downy ([7]; 500 g ai/ha): 0; Plant response rating, Surinam Grass ([8]; 500 g ai/ha): 0; Plant response rating (0 to 100), Foxtail, Green ([9]; 125 g ai/ha): 0; Plant response rating, Foxtail, Green ([9]; 250 g ai/ha): 0; Plant response rating, Foxtail, Green ([9]; 500 g ai/ha): 0
